In patent US20170021014A1, “VACCINE ADJUVANTS FOR CYTOMEGALOVIRUS PREVENTION AND TREATMENT” (THE JOHNS HOPKINS UNIVERSITY, priority 2015, published 2017):

Assays:
[1] = tested on: pp28-luciferase Towne strain; experiment: Virus titration of first cycle supernatants by plaque assay; assay type: cell-based, human cytomegalovirus; conditions: MDP-pretreated cells, plaques at 8 days
Experimental: Human Foreskin Fibroblasts (HFFs) passage 12-16 (ATCC, CRL-2088™) were grown in Dulbecco's Modified Eagle Medium (DMEM) containing 10% fetal bovine serum (FBS) (Gibco, Carlsbad, Calif.) in a 5% CO2 incubator at 37° C. The generation of NOD2-KD HFFs (HFF-shNOD2) and control cells (HFF-GIPZ) was reported. One day prior to infection or treatment, 8×10^4 cells were seeded into each well of 12-well tissue culture plates. Multiplicities of infection were specified for each experiment. The Towne HCMV strain was obtained from ATCC (VR-977). The pp28-luciferase Towne strain which expresses luciferase under the control of the pp28 late promoter has been described. Luciferase activity was measured at 72 or 96 hours post infection (hpi) using the Glomax-Multi+ Detection System (Promega, Madison, Wis.). In second cycle replication assays cell free supernatants from HFFs infected with pp28-luciferase Towne were collected 4 days post completion of first replication cycle (5-10% of total volume/well), and used for infection of fresh HFFs seeded into 12-well plates. […] Supernatants from the first cycle were also used to measure virus titer in 12-well plates and plaques were counted at day 8 post infection. […] The Johns Hopkins School of Medicine Office of Human Subject Research Institutional Review Board (IRB-X) determined that the research qualified for an exemption.

IFN-β mRNA = experiment: qRT-PCR of IFN-β mRNA in HFFs; assay type: cell-based, Human
Experimental: (§1) Total RNA was isolated from cells using RNAeasy Mini kit (Qiagen, Georgetown, Md.) according to manufacturer's instructions. RevertAid first strand cDNA synthesis kit (Fermentas life sciences, Cromwell Park, Md.) was used to synthesize first strand cDNA from total RNA using oligo-dT primers. Negative reverse-transcriptase (−RT) reactions were included to ensure the specificity of qRT-PCR reactions. Synthesis of first strand cDNA from mRNA template was carried out at 42° C. for 1 h. Quantitative RT-PCR was performed using specific primers and SYBR green (Fermentas life science) with two-step cycling protocol (95° C. for 15 s, 60° C. for 1 min). All reactions were performed in triplicates and GAPDH was used as internal control. The expression level of the tested genes was normalized to the expression of GAPDH.

HCMV Towne = experiment: Plaque reduction assay in HFFs, HCMV Towne; assay type: cell-based, human cytomegalovirus
Experimental: A plaque reduction assay was performed in HFFs to determine the effects of MDP treatment either before or after infection on virus replication. HFFs were seeded into 12-well plates (2×10^5 cells/well) and infected with Towne HCMV at approximately 100 plaques/well. After 90 minutes, media were aspirated, and DMEM containing 0.5% carboxymethyl-cellulose (CMC), 4% fetal bovine serum (FBS), and MDP at final concentration of 10 μg/mL were added into duplicate wells. In pretreatment experiments HFFs were first treated with MDP (10 μg/mL) for 72 h after which infection with the Towne or TB40 strains was carried out at approximately 100 plaques/well. After 90 minute adsorption, media were aspirated, and DMEM containing 0.5% CMC and 4% FBS were added into duplicate wells. After incubation at 37° C. for 8 days (Towne) or 10 days (TB40) the overlay was removed and plaques were counted after crystal violet staining.

IL8 mRNA = experiment: qRT-PCR of IL8 mRNA in HFFs; assay type: cell-based, Human
Experimental: as §1

[2] = tested on: pp28-luciferase Towne strain; experiment: pp28-luciferase HCMV replication assay (first and second cycle); assay type: cell-based, human cytomegalovirus; conditions: for luciferase activity reduction, second cycle: MOI 1, second cycle 72 h
Experimental: Human Foreskin Fibroblasts (HFFs) passage 12-16 (ATCC, CRL-2088™) were grown in Dulbecco's Modified Eagle Medium (DMEM) containing 10% fetal bovine serum (FBS) (Gibco, Carlsbad, Calif.) in a 5% CO2 incubator at 37° C. The generation of NOD2-KD HFFs (HFF-shNOD2) and control cells (HFF-GIPZ) was reported. One day prior to infection or treatment, 8×10^4 cells were seeded into each well of 12-well tissue culture plates. Multiplicities of infection were specified for each experiment. The Towne HCMV strain was obtained from ATCC (VR-977). The pp28-luciferase Towne strain which expresses luciferase under the control of the pp28 late promoter has been described. Luciferase activity was measured at 72 or 96 hours post infection (hpi) using the Glomax-Multi+ Detection System (Promega, Madison, Wis.). In second cycle replication assays cell free supernatants from HFFs infected with pp28-luciferase Towne were collected 4 days post completion of first replication cycle (5-10% of total volume/well), and used for infection of fresh HFFs seeded into 12-well plates. Cell lysates were collected after 72 h for luciferase activity. Supernatants from the first cycle were also used to measure virus titer in 12-well plates and plaques were counted at day 8 post infection. A purified preparation of the pp28-luciferase Towne strain was prepared by ultracentrifugation using sucrose gradient. The HCMV TB40 strain was obtained from ATCC (VR-1578). Clinical isolates of HCMV were obtained from the microbiology laboratory at Johns Hopkins Hospital with no identifiers that could be linked to a patient. The Johns Hopkins School of Medicine Office of Human Subject Research Institutional Review Board (IRB-X) determined that the research qualified for an exemption.

[3] = tested on: TANK-binding kinase (TBK1); experiment: Western blot of NOD2 downstream signaling proteins; assay type: cell-based, Human; conditions: HCMV-infected, MOI 0.1, MDP treatment, 36 hpi
Experimental: Cell lysates containing equivalent amount of proteins were mixed with an equal volume of sample buffer (125 mM Tris-HCL, pH 6.8, 4% SDS, 20% glycerol and 5% β-mercaptoethanol) and boiled at 100° C. for 10 min. Denatured proteins were resolved in Tris-glycine polyacrylamide gels (10-12%) and transferred to polyvinylidine difluoride (PVDF) membranes (Bio-Rad Laboratories, Hercules, Calif.) by electroblotting. Membranes were incubated in blocking solution [5% w/v non-fat dry milk and 0.1% Tween-20 in PBS (PBST)] for 1 h, washed with PBST, and incubated with antibody at 4° C. overnight. Membranes were washed with PBST and incubated with horseradish peroxidase-conjugated secondary antibodies in PBST for 1 h at room temperature. Following washing with PBST, protein bands were visualized by chemiluminescence using SuperSignal West Dura and Pico reagents (Pierce Chemical, Rockford, Ill.). Antibodies for HCMV proteins were used at 1:2000 and included: mouse monoclonal anti-HCMV IE1 & IE2 (MAB810, Millipore, Billerica, Mass.), mouse monoclonal anti-HCMV UL83 (pp65, Vector Laboratories Inc., Burlingame, Calif.), and mouse monoclonal anti-pp52 (UL44, Santa Cruz Biotechnology, Santa Cruz, Calif.). […]

[4] = HCMV-infected, MDP treatment, 4 hpi

CC(=O)N[C@H]1C(O)O[C@H](CO)[C@@H](O)[C@@H]1O[C@H](C)C(=O)N[C@@H](C)C(=O)N[C@H](CCC(=O)O)C(N)=O (mixture of isomers) [MDP, Muramyl dipeptide]
reduction in virus titer [1]: 6 fold
increase in IFN-β mRNA (IFN-β mRNA; [4]): 2 fold
induction of IFN-β mRNA (IFN-β mRNA; MDP after infection at MOI 0.1, 36 hpi (infection only 15-fold)): 170 fold
induction of IFN-β mRNA (IFN-β mRNA; MDP after infection at MOI 1, 36 hpi (infection only 300-fold)): 800 fold
IFN-β expression induction (IFN-β mRNA; MDP alone, compared to non-infected cells, 36 h): 4 fold
IFN-β mRNA (IFN-β mRNA; MDP pretreatment 72 h then HCMV MOI 1 for 24 h): significant induction
IFN-β mRNA (IFN-β mRNA; non-infected HFFs, MDP pretreatment 72 h): did not result in IFN-β induction
plaque number (HCMV Towne; MDP 10 μg/mL after infection, 100 PFU/well, counted after 8 days): reduced plaque number
plaque number reduction (HCMV Towne; MDP 10 μg/mL pretreatment 72 h, 100 PFU/well, 8 days): approximately 90%
number of plaques (HCMV Towne; control GIPZ cells, MDP pretreatment 72 h, day 8): significantly decreased
virus replication (plaque number) (HCMV Towne; shIFN-β cells, MDP pretreatment 72 h, day 8): failed to restrict virus replication
increase in IL8 mRNA (IL8 mRNA; [4]): 2 fold
further increase of IL8 mRNA (IL8 mRNA; MDP after infection compared to MDP or HCMV alone, irrespective of MOI): 6-7 fold
IL8 expression induction (IL8 mRNA; MDP alone, non-infected, 36 h): 3 fold
IL8 expression (IL8 mRNA; MDP pretreatment 72 h, non-infected or HCMV-infected): modestly induced
pp28 activity reduction, first cycle ([2]; MDP pretreatment 10 μg/mL 72 h, MOI 0.1, 96 hpi): 80%
pp28 expression (luciferase activity), first cycle ([2]; MDP pretreatment 18 or 72 h, MOI 1, 96 hpi): modest reduction
luciferase activity reduction, second cycle ([2]; MDP pretreatment 18 h): approximately 45%
luciferase activity reduction, second cycle ([2]; MDP pretreatment 72 h): ~75%
phosphorylation of TBK1 [3]: increased phosphorylation
